Experimental data reported in patent US6503935B1, “Imidazoles and related compounds as α1A agonists” (Abbott Laboratories, priority 1998, dated 2003).
Structures can show the parent of a compound that is named as a salt. Where two headings read alike, the source gives them in different places.

Legend:
[1] = target: T1, α1A (rat submaxillary gland) (Rattus norvegicus, UniProt P43140); assay: Radioligand binding with [3H]-prazosin, α1A
T1 construct: α1A (rat submaxillary gland); from tissue; host or cells: rat submaxillary gland
T1 sequence (P43140 1-466): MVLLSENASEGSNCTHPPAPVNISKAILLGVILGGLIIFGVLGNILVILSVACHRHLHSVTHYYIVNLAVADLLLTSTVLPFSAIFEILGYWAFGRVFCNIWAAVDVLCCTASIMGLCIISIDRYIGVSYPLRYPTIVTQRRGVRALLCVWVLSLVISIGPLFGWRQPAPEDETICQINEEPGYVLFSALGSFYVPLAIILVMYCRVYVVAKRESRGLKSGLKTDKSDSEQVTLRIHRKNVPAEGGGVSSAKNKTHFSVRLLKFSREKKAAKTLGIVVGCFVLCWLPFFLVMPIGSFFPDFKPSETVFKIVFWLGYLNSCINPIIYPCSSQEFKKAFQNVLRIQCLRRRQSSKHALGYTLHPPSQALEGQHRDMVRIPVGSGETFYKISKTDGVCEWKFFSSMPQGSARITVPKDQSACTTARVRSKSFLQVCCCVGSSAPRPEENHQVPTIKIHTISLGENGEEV
Summary of the method: (§1)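 Radioligand binding with [3H]-prazosin: α1A from rat submaxillary gland; α1b hamster receptor and α1d rat receptor, each expressed in mouse fibroblasts.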

Anesthetized Dogs [2] = assay: Mean arterial pressure (MAP) in anesthetized dogs; assay type: in vivo, dog; conditions: iv dose causing a maximum increase in MAP of 20 mm Hg, anesthetized female dogs
Excerpt: (§2) In vivo Functional Assays-Assessment of Intrurethral Pressure (IUP) and Mean Arterial Pressure (MAP) in Anesthetized Dogs
(§3) Female dogs (Marshall Farms, North Rose, N.Y.) greater that 2 years of age and weighing between 12 and 15 kg were used in these studies. At least 2 weeks prior to any agonist dosing, dogs were instrumented for the chronic measurement of arterial blood pressure by implanting a telemetry transducer/transmitter (TA11PA-C40, Data Sciences International, St. Paul, Minn.) into a carotid artery.
(§4) On the test day, dogs fasted since the previous afternoon were pre-anesthetized with thiopental sodium 15 mg/kg i.v. (Pentothal™, Abbott) and intubated. Anesthesia was maintained by allowing the dog to spontaneously breathe a mixture of isoflurane (2.5 to 3 volume %) and oxygen delivered by a Narkomed Standard anesthesia system (North American Drager, Telford, Pa.). An Abbocath-T™ i.v. catheter (18-G, Abbott) was inserted into the cephalic vein for the administration of agonists. A telemetry receiver (RA1310, DataSciences) was placed under the head of each dog and was interfaced to a computerized data acquisition system (Modular Instruments Inc.(MI2), Malvern, Pa.) which allowed for the continuous calibrated recording of arterial blood pressure which was electronically filtered to determine its mean value (MAP).
(§5) Dogs with chronic telemetry implants anesthetized as described above were placed in dorsal recumbency and a balloon catheter was inserted into the urethral orifice and advanced approximately 15 cm until the tip was well inside the bladder. The balloon was then inflated with 1 ml of room air and the catheter slowly withdrawn until resistance (corresponding to the bladder neck) was evident. The balloon was then deflated and the catheter withdrawn an additional 2 cm. The balloon was then reinflated and its catheter port connected to a Gould Statham P23Dd pressure transducer interfaced to a computerized data acquisition system (Modular Instruments, Inc., Malvern, Pa.) for the measurement of intraurethral pressure. Increasing iv doses of test agonists were administered and the maximum effect of each dose on IUP was recorded. The effect of each dose was allowed to return to baseline before the next dose was given.
(§6) From the resulting dose response curve, an ED5 value, for the dose causing a maximum increase in IUP of 5 mm Hg, could be estimated. An ED20 value for the dose causing a maximum increase in MAP of 20 mm Hg could also be estimated. A selectivity ratio of MAP ED20 vs. IUP ED5 was calculated.

Anesthetized Dogs [3] = assay: Intraurethral pressure (IUP) in anesthetized dogs; assay type: in vivo, dog; conditions: Canis lupus familiaris; iv dose causing a maximum increase in IUP of 5 mm Hg, anesthetized female dogs; read-out: Mean IUP ED5
Anesthetized Dogs [4] = assay: Intraurethral pressure (IUP) in anesthetized dogs; assay type: in vivo, dog; conditions: anesthetized female dogs, iv
Excerpt: as §2, §3, §4, §5, §6

α1A (rabbit urethra) = target: T2, α1A (rabbit urethra) (Oryctolagus cuniculus, UniProt O02824); assay: Agonist contraction of smooth muscle tissue, rabbit urethra; assay type: cell-based; conditions: rabbit urethra; read-out: Agonist Tissue Response (pD2) α1A (rab ureth) (converted)
T2 construct: tested for α1A functional activity using rabbit urethra; from tissue; host or cells: rabbit urethra
T2 sequence (O02824 1-466): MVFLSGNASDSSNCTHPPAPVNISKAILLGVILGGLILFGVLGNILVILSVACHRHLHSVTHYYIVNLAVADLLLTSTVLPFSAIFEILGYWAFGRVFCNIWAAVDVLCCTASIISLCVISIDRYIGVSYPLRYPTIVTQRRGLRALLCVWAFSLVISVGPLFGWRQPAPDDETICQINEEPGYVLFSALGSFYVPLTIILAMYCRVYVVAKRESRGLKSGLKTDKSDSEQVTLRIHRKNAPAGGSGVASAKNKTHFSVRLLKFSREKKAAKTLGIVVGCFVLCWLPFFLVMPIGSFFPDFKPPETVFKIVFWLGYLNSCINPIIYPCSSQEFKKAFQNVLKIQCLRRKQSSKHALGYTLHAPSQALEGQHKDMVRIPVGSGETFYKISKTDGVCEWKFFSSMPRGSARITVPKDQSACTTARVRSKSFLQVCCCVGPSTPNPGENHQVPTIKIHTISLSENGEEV
Description: Most of the compounds were tested for α1A functional activity using rabbit urethra as follows. Female New Zealand white rabbits (2.0-3.5 Kg) were sedated with CO2 and decapitated. […] Subsequent experimental conditions were as described above for the other tissues. Agonist concentration response curves were cumulative except for the vas deferens assay in which the transient response made such measurements impractical.

[5] = target: T3, α1d (rat receptor expressed in mouse fibroblasts) (Rattus norvegicus, UniProt P23944); assay: Radioligand binding with [3H]-prazosin, α1d; conditions: read-out: Radioligand Binding Ki α1d (Rat)
T3 construct: expressed in transfected cells; host or cells: mouse fibroblasts
T3 sequence (P23944 1-561): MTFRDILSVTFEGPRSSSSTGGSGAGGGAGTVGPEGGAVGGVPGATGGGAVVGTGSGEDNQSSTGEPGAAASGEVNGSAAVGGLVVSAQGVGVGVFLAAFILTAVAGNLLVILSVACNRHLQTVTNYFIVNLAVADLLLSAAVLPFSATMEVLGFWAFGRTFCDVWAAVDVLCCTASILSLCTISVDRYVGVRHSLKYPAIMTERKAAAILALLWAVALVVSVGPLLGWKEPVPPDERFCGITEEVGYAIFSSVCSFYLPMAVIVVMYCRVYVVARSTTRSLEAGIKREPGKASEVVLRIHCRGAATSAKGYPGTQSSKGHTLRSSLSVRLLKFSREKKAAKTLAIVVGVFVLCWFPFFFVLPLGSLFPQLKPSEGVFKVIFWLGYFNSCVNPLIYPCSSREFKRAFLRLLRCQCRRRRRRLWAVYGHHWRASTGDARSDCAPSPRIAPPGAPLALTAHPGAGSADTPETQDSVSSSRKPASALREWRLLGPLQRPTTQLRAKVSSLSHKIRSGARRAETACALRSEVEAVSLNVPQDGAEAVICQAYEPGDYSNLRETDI
Summary of the method: as §1

[6] = target: T4, α1A (rat epididymal vas deferens) (Rattus norvegicus, UniProt P43140); assay: cell-based; conditions: rat epididymal vas deferens (values marked *); read-out: Agonist Tissue Response (pD2) α1A, test performed using rat epididymal vas deferens (converted)
T4 sequence (P43140 1-466): T1 sequence (P43140 1-466)

α1D (rat aorta) = target: T5, α1D (rat aorta) (Rattus norvegicus, UniProt P23944); assay: Agonist contraction of smooth muscle tissue, rat aorta; assay type: cell-based; conditions: read-out: Agonist Tissue Response (pD2) α1D (rat aorta) (converted)
T5 construct: α1B (rat spleen) and α1D (rat aorta) receptors; from tissue; host or cells: rat aorta strips, endothelium removed
T5 sequence (P23944 1-561): T3 sequence (P23944 1-561)

[7] = target: T6, α1b (hamster receptor expressed in mouse fibroblasts) (Mesocricetus auratus, UniProt P18841); assay: Radioligand binding with [3H]-prazosin, α1b; conditions: read-out: Radioligand Binding Ki α1b (Hamster)
T6 construct: expressed in transfected cells; host or cells: mouse fibroblasts
T6 sequence (P18841 1-515): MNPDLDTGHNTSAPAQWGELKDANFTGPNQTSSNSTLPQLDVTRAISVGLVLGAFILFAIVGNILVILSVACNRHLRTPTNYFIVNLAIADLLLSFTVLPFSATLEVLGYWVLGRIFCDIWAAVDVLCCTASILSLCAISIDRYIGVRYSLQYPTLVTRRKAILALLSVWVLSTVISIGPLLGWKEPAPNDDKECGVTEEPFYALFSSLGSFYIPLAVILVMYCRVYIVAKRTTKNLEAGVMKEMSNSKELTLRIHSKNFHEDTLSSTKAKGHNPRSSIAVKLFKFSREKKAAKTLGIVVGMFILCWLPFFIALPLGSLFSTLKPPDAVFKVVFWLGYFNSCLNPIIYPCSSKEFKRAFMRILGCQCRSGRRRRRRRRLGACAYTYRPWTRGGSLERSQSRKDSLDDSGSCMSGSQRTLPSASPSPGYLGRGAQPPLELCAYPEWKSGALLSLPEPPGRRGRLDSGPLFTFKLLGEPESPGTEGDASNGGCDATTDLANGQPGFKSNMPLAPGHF
Description: For purposes of discussing α1 adrenoceptor subtypes, the IUPHAR convention of using lower case letters to define molecular clones and upper case letters to indicate pharmacologically defined adrenoceptors has been followed. Compounds of formula I were evaluated in radioligand binding assays specific for α1A (rat submaxillary gland), α1b (hamster receptor expressed in mouse fibroblasts) and α1d (rat receptor expressed in mouse fibroblasts) using [^3H]-prazosin as the radioligand as described in Knepper, et al. J. Pharm.

α1B (rat spleen) = target: T7, α1B (rat spleen) (Rattus norvegicus, UniProt P15823); assay: Agonist contraction of smooth muscle tissue, rat spleen; assay type: cell-based; conditions: read-out: Agonist Tissue Response (pD2) α1B (rat spleen) (converted)
T7 construct: α1B (rat spleen) and α1D (rat aorta) receptors; from tissue; host or cells: rat spleen
T7 sequence (P15823 1-515): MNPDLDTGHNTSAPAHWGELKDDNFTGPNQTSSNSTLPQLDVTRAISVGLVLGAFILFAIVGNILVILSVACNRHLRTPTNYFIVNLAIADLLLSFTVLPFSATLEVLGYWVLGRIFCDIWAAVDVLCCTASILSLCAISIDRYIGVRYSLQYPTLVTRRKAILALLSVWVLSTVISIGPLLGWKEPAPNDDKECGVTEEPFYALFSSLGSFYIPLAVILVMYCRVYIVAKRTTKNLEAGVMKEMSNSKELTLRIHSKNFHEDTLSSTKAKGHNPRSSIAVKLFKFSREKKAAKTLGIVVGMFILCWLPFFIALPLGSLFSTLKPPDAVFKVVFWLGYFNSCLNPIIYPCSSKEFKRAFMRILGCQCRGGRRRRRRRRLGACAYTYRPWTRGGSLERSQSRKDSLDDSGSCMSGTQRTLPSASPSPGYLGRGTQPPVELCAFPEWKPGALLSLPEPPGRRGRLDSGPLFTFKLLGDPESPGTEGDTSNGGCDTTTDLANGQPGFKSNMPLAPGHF

SMILES	melting point	Ki [1]	Ki [5]	also measured
CN(c1cccc2c1CCCC2c1c[nH]cn1)S(C)(=O)=O (stereo not drawn) (as salt: maleate) [Example 15, N-[5,6,7,8-tetrahydro-5-(1H-imidazol-4-yl)-1-naphthalenyl]-N-methylmethanesulfonmamide, maleate]	146 to 147 °C	–	–	–
O=C(Nc1cccc2c1CCCC2c1c[nH]cn1)C(F)(F)F (stereo not drawn) (as salt: maleate) [Example 17, 2,2,2-trifluoro-N-[5-(1H-imidazol-4-yl)-5,6,7,8-tetahydro-1-naphthalenyl]acetamide, maleate]	181 to 182 °C	–	–	–
COc1ccc(NS(C)(=O)=O)c2c1C(c1c[nH]cn1)CCC2 (stereo not drawn) (as salt: maleate) [Example 26, N-[5,6,7,8-tetrahydro-(1H-imidazol-4-yl)-4-methoxyy-1-naphthalenyl]methanesulfonamide, maleate]	181 to 184 °C	–	–	–
C=C(c1cccc(NS(=O)(=O)CC)c1)c1c[nH]cn1 (as salt: maleate) [Example 45, N-{3-[1-(1H-imidazol-4-yl)vinyl]phenyly}ethanesulfonamide, maleate]	151 to 155 °C	–	–	–
O=S(=O)(CC(F)(F)F)Nc1cccc2c1CCCC2c1c[nH]cn1 (single isomer, unassigned; (+)) [Example 36, (+)-N-[5,6,7,8-tetrahydro-5-(1H-imidazol-4-yl)-1-naphthalenyl]-2,2,2-trifluoroethanesulfonamide]	–	–	–	Ki ([1]; rat submaxillary gland, [3H]-prazosin): 0.124 µM; Mean MAP ED20 (Anesthetized Dogs [2]): 508 nmol/kg; ED (5 mmHg IUP increase) (Anesthetized Dogs [3]): 0.156 µmol/kg; Mean Selectivity Ratio MAP ED20/IUP ED5 (Anesthetized Dogs [4]): 3.6; EC50 (α1A (rabbit urethra)): 1.86 µM
CS(=O)(=O)Nc1c(O)ccc2c1CCCC2c1c[nH]cn1 (stereo not drawn) [Example 2, N-[2-hydroxy-5-(1H-imidazol-4-yl)-5,6,7,8-tetrahydro-1-naphthalenyl]methanesulfonamide, hydrochloride]	–	0.0361 µM	1.26 µM	EC50 [6]: 0.017 µM; EC50 (α1D (rat aorta)): 1.91 µM; Ki [7]: 2.52 µM
CCn1cnc(C2CCCc3c2ccc(O)c3NS(C)(=O)=O)c1.Cl (stereo not drawn) [Example 6, N-[5-(1-ethyl-1H-imidazol-4-yl)-2-hydroxy-5,6,7,8-tetrahydro-1-naphthalenyl]methanesulfonamide, hydrochloride]	230 to 234 °C (dec.)	2.08 µM	16.7 µM	–
CCCn1cnc(C2CCCc3c2ccc(O)c3NS(C)(=O)=O)c1 (stereo not drawn) [Example 7, N-[2-hydroxy-5-(1-propyl-1H-imidazol-4-yl)-5,6,7,8-tetrahydro-1-naphthalenyl]methanesulfonamide, hydrochloride]	–	0.661 µM	3.78 µM	EC50 [6]: > 1000 µM; EC50 (α1B (rat spleen)): > 1000 µM
